Experimental data taken from patent publication US5026729A, “Lipoxygenase inhibiting compounds” (Abbott Laboratories, priority 1989, dated 1991).

What was measured:
5-Lipoxygenase = target: T1, 5-Lipoxygenase (Homo sapiens, UniProt P09917); assay: 5-Lipoxygenase inhibitory activity in vitro; format: biochemical
T1 sequence (P09917 1-674): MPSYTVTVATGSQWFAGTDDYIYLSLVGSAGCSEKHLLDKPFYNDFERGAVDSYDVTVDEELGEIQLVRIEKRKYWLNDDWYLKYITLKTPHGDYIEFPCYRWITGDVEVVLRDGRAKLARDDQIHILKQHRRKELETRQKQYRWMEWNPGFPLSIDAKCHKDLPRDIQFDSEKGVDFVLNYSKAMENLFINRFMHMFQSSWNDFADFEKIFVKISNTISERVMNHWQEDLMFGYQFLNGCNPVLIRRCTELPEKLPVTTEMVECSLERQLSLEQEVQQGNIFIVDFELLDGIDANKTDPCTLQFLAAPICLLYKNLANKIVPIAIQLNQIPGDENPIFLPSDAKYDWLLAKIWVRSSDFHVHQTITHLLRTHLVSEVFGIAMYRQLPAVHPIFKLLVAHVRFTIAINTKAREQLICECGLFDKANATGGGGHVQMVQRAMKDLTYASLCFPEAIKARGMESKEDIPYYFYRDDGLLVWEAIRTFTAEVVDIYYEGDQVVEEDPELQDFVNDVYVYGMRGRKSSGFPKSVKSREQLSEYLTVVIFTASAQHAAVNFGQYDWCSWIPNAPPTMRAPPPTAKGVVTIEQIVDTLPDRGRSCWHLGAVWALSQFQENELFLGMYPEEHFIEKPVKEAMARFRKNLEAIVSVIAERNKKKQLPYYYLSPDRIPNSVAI

[1] = Determination of plasma half-life after intravenous injection in rats; format: in vivo; conditions: 1.7 mL/kg solution via jugular cannula, HPLC, elimination phase; for half-life: rat, plasma, read-out: Plasma Halflife (converted)
Procedure: Rats were injected intravenously with a 1.7 mL/kg solution of test compound through a jugular cannula. Multiple blood samples were collected from the lateral tail vein using heparinized capillary tubes. Plasma was obtained by centrifugation and precipitation of proteins by 2 volumes of methanol was followed by centrifugation at 12000×G for 10 min. The supernatant was analyzed by HPLC using a C18 Adsorbosphere 7μm column and eluted with a mobile phase of varying amounts of acetonitrile and aqueous 8mM triethylamine acetate and 10mM acetohydroxamic acid with a flow rate of about 1mL/min and detection by UV spectroscopy. The quantitation of compounds was calculated using external standards. The halflife of a test compound was determined from the elimination phase of a graph of the log of the plasma concentration versus time.

Row | inhibition at 0.78 µM (5-Lipoxygenase; 0.78 μM, read-out: 5-Lipoxygenase Inhibitory Activity (percent inhibition)) [%] | half-life [1] [h] | IC50 (5-Lipoxygenase) [µM] | inhibition at 0.39 µM (5-Lipoxygenase; 0.39 μM, read-out: 5-Lipoxygenase Inhibitory Activity (percent inhibition)) [%] | Plasma Halflife [1] | SMILES
1 | 91 | 1.4 | – | – | – | CC(=O)N(O)C(C)c1ccc(OCc2ccc(Cl)cc2)cc1 (stereo not drawn) [E]
2 | – | 5.3 | 0.2 | – | – | Cc1cc(C(C)N(O)C(N)=O)ccc1OC(C)c1ccccc1 (stereo not drawn) [Example 3, N-hydroxy-N-[1-(4-(1-phenylethoxy)-3-methylphenyl)ethyl]urea]
3 | – | 2.7 | 0.1 | – | – | Cc1cc(C(C)N(O)C(N)=O)ccc1OCc1ccccc1 (stereo not drawn) [A]
4 | – | 4.6 | – | 72 | – | CC(c1ccc(OCc2ccc(Cl)cc2)cc1)N(O)C(N)=O (stereo not drawn) [F]
5 | – | 1.2 | 0.05 | – | – | Cc1cc(OC(C)c2ccccc2)ccc1C(C)N(O)C(N)=O (stereo not drawn) [Example 4, N-hydroxy-N-[1-(4-(1-phenylethoxy)-2-methylphenyl)ethyl]urea]
6 | – | 5.7 | 0.6 | – | – | CC(=O)N(O)C(C)c1ccc(OC(C)c2ccc(Cl)cc2)cc1 (stereo not drawn) [Example 33]
7 | – | 12.4 | 0.5 | – | – | CC(=O)N(O)C(C)c1ccc(OC(C)c2ccc(F)cc2)cc1 (stereo not drawn) [Example 31, N-Hydroxy-N-(1-(4-(1-(4-fluorophenyl)ethoxy)-phenyl)ethyl]acetamide]
8 | – | 5.6 | 0.5 | – | – | CC(=O)N(O)C(C)c1ccc(OCc2ccc(F)cc2)cc1 (stereo not drawn) [C]
9 | – | 7.2 | 0.3 | – | – | CC(Oc1ccc(C(C)N(O)C(N)=O)cc1)c1ccc(F)cc1 (stereo not drawn) [Example 32]
10 | – | 7.8 | 0.2 | – | – | CC(Oc1ccc(C(C)N(O)C(N)=O)cc1)c1ccc(Cl)cc1 (stereo not drawn) [Example 34, N-hydroxy-N-[1-(4-(1-(4-chlorophenyl)ethoxy)-phenyl)ethyl]urea]
11 | – | 0.6 | 0.4 | – | – | Cc1cc(OCc2ccccc2)ccc1C(C)N(O)C(N)=O (stereo not drawn) [B]
12 | – | – | 0.4 | – | biphasic | CC(c1ccc(OCc2ccc(F)cc2)cc1)N(O)C(N)=O (stereo not drawn) [D]
